Numbers after ± are expanded uncertainties.
Experiments:
[1] = 100 kPa, Liquid; for speed of sound: Frequency=3 MHz, Single path-length method; for mass density: Vibrating tube method
[2] = xn = mol fraction of the nth substance listed; conditions: 100 kPa, Liquid, x2 = 0; for speed of sound: Frequency=3 MHz, Single path-length method; for mass density: Vibrating tube method

| SMILES | speed of sound ([1]; 293.15 K) [m/s] | mass density ([1]; 293.15 K) [kg/m3] | speed of sound ([1]; 298.15 K) [m/s] | mass density ([1]; 298.15 K) [kg/m3] | speed of sound ([1]; 303.15 K) [m/s] | mass density ([1]; 303.15 K) [kg/m3] | speed of sound ([1]; 308.15 K) [m/s] | mass density ([1]; 308.15 K) [kg/m3] | speed of sound ([2]; 293.15 K) [m/s] | mass density ([2]; 293.15 K) [kg/m3] | speed of sound ([2]; 298.15 K) [m/s] | mass density ([2]; 298.15 K) [kg/m3] | speed of sound ([2]; 303.15 K) [m/s] | mass density ([2]; 303.15 K) [kg/m3] | speed of sound ([2]; 308.15 K) [m/s] | mass density ([2]; 308.15 K) [kg/m3] |
| --- | --- | --- | --- | --- | --- | --- | --- | --- | --- | --- | --- | --- | --- | --- | --- | --- |
| CCC(C)O (centres undefined) [butan-2-ol] | 1229.9 ± 6.2 | 806.952 ± 1.4 | 1212.1 ± 6.2 | 802.847 ± 1.4 | 1194.1 ± 6.2 | 798.651 ± 1.4 | 1176 ± 6.2 | 794.363 ± 1.4 | – | – | – | – | – | – | – | – |
| CCC(C)O (centres undefined) [butan-2-ol] + CC(C)NC(C)C | – | – | – | – | – | – | – | – | 1229.9 ± 6.2 | 806.952 ± 1.4 | 1212.1 ± 6.2 | 802.847 ± 1.4 | 1194.1 ± 6.2 | 798.651 ± 1.4 | 1176 ± 6.2 | 794.363 ± 1.4 |
| CCC(C)O (centres undefined) [butan-2-ol] + CCCCNCCCC | – | – | – | – | – | – | – | – | 1229.9 ± 6.2 | 806.952 ± 1.4 | 1212.1 ± 6.2 | 802.847 ± 1.4 | 1194.1 ± 6.2 | 798.651 ± 1.4 | 1176 ± 6.2 | 794.363 ± 1.4 |
| CCCCNCCCC [dibutylamine] | 1260.1 ± 6.3 | 759.579 ± 1.4 | 1240.1 ± 6.3 | 755.48 ± 1.4 | 1220.3 ± 6.3 | 751.374 ± 1.4 | 1200.6 ± 6.3 | 747.268 ± 1.4 | – | – | – | – | – | – | – | – |
| CC(C)NC(C)C [diisopropylamine] | 1116.4 ± 6.3 | 717.305 ± 1.4 | 1093.8 ± 6.3 | 712.441 ± 1.4 | 1071.1 ± 6.3 | 707.55 ± 1.4 | 1043.5 ± 6.3 | 702.661 ± 1.4 | – | – | – | – | – | – | – | – |
| CCCC(C)O (centres undefined) [pentan-2-ol] | 1250.3 ± 6.5 | 809.399 ± 1.5 | 1232.4 ± 6.5 | 805.37 ± 1.5 | 1214.1 ± 6.5 | 801.27 ± 1.5 | 1195.7 ± 6.5 | 797.08 ± 1.5 | – | – | – | – | – | – | – | – |
| CCCC(C)O (centres undefined) [pentan-2-ol] + CC(C)NC(C)C | – | – | – | – | – | – | – | – | 1250.3 ± 6.5 | 809.399 ± 1.5 | 1232.4 ± 6.5 | 805.37 ± 1.5 | 1214.1 ± 6.5 | 801.27 ± 1.5 | 1195.7 ± 6.5 | 797.08 ± 1.5 |
| CCCC(C)O (centres undefined) [pentan-2-ol] + CCCCNCCCC | – | – | – | – | – | – | – | – | 1250.3 ± 6.5 | 809.399 ± 1.5 | 1232.4 ± 6.5 | 805.37 ± 1.5 | 1214.1 ± 6.5 | 801.27 ± 1.5 | 1195.7 ± 6.5 | 797.08 ± 1.5 |

Source: the NIST ThermoML archive (doi:10.1016/j.jct.2018.12.012)
